The target of test [1] is T1, Tyrosinase (Agaricus bisporus, UniProt O42713).
T1 sequence (O42713 whole entry): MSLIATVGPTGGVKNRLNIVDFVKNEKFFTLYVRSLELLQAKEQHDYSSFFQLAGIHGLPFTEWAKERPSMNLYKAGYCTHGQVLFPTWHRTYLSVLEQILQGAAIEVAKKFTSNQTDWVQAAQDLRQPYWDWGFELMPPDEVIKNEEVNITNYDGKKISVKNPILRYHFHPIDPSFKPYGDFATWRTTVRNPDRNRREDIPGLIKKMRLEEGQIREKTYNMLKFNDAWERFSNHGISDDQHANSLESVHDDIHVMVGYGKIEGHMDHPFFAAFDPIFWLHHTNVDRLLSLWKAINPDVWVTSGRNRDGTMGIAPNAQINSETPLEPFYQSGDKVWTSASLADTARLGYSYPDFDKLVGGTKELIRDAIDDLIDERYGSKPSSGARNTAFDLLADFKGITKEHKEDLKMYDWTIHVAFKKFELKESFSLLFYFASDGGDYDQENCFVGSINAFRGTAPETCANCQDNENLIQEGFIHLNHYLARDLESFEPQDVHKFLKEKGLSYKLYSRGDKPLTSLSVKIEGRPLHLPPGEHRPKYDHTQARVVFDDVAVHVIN
Nature of the test: Inhibition of diphenolase activity of mushroom tyrosinase preincubated for 10 mins followed by addition of L-DOPA measured for 5 mins by spectrophotometry.

For test [2], the target named is T1, Tyrosinase. Nature of the test: Noncompetitive inhibition of diphenolase activity of mushroom tyrosinase preincubated for 10 mins followed by addition of L-DOPA measured for 5 mins by Lineweaver-Burk plot analysis.

One may read the IC50 as the point on the concentration scale where inhibition reaches its midpoint. Higher therefore signals weaker potency in that assay. A word on the Ki: it is the dissociation constant of the complex between target and ligand, obtained from inhibition or displacement. Low readings indicate higher affinity, high ones lower affinity.

On to `O=C(O)CSc1nnc(NC(=S)Nc2ccc(F)c(Cl)c2)s1`, for which 33.9 µM corresponded to half-maximal inhibition in test [1] (IC50). In other words, the double-digit micromolar range.

As to `O=C(O)CSc1nnc(NC(=S)Nc2ccc(F)cc2F)s1`, in test [1], the IC50 is 20.1 µM.

For `O=C(O)CSc1nnc(NC(=S)Nc2ccccc2)s1`, in test [1], the IC50 worked out at 27.7 µM.

`Cc1ccc(NC(=S)Nc2nnc(SCC(=O)O)s2)cc1`: half-maximal inhibition in test [1] (IC50) required 54.4 µM. The same measure, in the same setting: in the case of `COc1ccccc1NC(=S)Nc1nnc(SCC(=O)O)s1` it was 27.1 µM; in that of `O=C(O)CSc1nnc(NC(=S)Nc2cccc(F)c2)s1`, 31.3 µM. In test [1], `O=C(O)CSc1nnc(NC(=S)Nc2cccc(C(F)(F)F)c2)s1` had an IC50 of 6.13 µM. The same compound had a Ki in test [2] of 8.13 µM. Consider `O=C(O)CSc1nnc(NC(=S)Nc2ccc(F)cc2)s1`, for which the concentration for half-maximal inhibition (IC50) in test [1] amounted to 20.9 µM. On the same count and under the same terms, with `O=C(O)CSc1nnc(NC(=S)Nc2ccc(F)c(F)c2)s1` the figure was 20.5 µM; with `O=C(O)CSc1nnc(NC(=S)Nc2cccc(Cl)c2)s1`, 59.7 µM; with `O=C(O)CSc1nnc(NC(=S)Nc2ccc(Cl)cc2)s1`, 26.3 µM.

The values above are taken from ChEMBL document CHEMBL3779795, “Design and synthesis of thiourea derivatives with sulfur-containing heterocyclic scaffolds as potential tyrosinase inhibitors” (Bioorg Med Chem, 2016).
